Source: patent US20230250070A1, “DIHYDROOXAZOLE AND THIOUREA DERIVATIVES MODULATING THE NLRP3 INFLAMMASOME PATHWAY” (AC IMMUNE SA, priority 2020, published 2023)
pIC50: −log10 of the molar value.

What was measured:
[1] = tested on: NLRP3 inflammasome pathway; experiment: NLRP3 inflammasome pathway activation assay, Nigericin stimulation, IL-1β release (AlphaLISA); format: cell-based; details: PMA-differentiated, LPS-primed human monocyte-like cells, Nigericin 3.75 µM for 3 h
Protocol: (§1) The following assays were used to determine the inhibitory activity of test compounds on the NLRP3 inflammasome pathway using common stimuli Nigericin (Invivogen) or monosodium urate crystals (MSU) (Invivogen).
(§2) Human monocyte-like cells were cultured in RPMI-1640 Glutamax medium supplemented with 10% heat inactivated FCS and 50 U/ml penicillin-streptomycin (Life Technologies).
(§3) Human monocyte-like cells were seeded at 75000 per well in a 96-well plate and were differentiated overnight into macrophages with 10 ng/ml PMA (Phorbol Myristate Acetate). The following day, medium containing 10 ng/ml LPS (Lipopolysaccharide) were added. After 3 hours of LPS priming, concentrations of test compound in the range from 100 µM to 6 nM were added 30 min prior to NLRP3 inflammasome pathway stimulation with Nigericin 3.75 µM or MSU 150 µg/ml for 3 h.
(§4) For IL-1β quantification, supernatants were analyzed using AlphaLISA kits according to the manufacturer’s instructions (Perkin Elmer AlphaLISA AL220F). Briefly, in a 384-well OptiPlate™ microplate, 5 µl of sample was mixed, with 20 µl of AlphaLISA Anti-Analyte Acceptor beads (10 µg/mL final) and Biotinylated Antibody Anti-Analyte (1 nM final). Then, incubated 60 minutes at RT, then 25 µL of 2X SA-Donor beads (40 µg/mL final) were added and incubated 30 minutes at RT in the dark. Reading was done using an EnVision-Alpha Reader (PerkinElmer).
(§5) IC50(concentration corresponding to 50% inhibition) were determined using GraphPad Prism 8.

[2] = tested on: NLRP3 inflammasome pathway; experiment: NLRP3 inflammasome pathway activation assay, MSU stimulation, IL-1β release (AlphaLISA); format: cell-based; details: PMA-differentiated, LPS-primed human monocyte-like cells, MSU 150 µg/ml for 3 h
Protocol: as §1, §2, §3, §4, §5

For “2-((1,2,3,5,6,7-hexahydro-s-indacen-4-yl)amino)-5-(5-isopropylisoxazol-3-yl)-4,5-dihydrooxazole-5-carboxylate [Example 28]”, the pIC50 [1] was 5.00 to 6.00 and the pIC50 [2] was greater than 6.00.

In the case of `CCOC(=O)C1(c2ccccc2)CN=C(Nc2c3c(cc4c2CCC4)CCC3)O1` (racemic) [Example 1, Ethyl 2-((1,2,3,5,6,7-hexahydro-s-indacen-4-yl)amino)-5-phenyl-4,5-dihydrooxazole-5-carboxylate], the pIC50 ([1]; Homo sapiens, 3 h) was greater than 6.00 and the pIC50 [2] was greater than 6.00.

Molecule `CCOC(=O)C1(c2ccccn2)CN=C(Nc2c3c(cc4c2CCC4)CCC3)O1` (racemic) [Example 8, Ethyl 2-((1,2,3,5,6,7-hexahydro-s-indacen-4-yl)amino)-5-(pyridin-2-yl)-4,5-dihydrooxazole-5-carboxylate] has a pIC50 ([1]; Homo sapiens, 3 h) greater than 6.00 and a pIC50 [2] greater than 6.00.

With `CCOC(=O)C1(c2ccc(Cl)cc2)CN=C(Nc2c3c(cc4c2CCC4)CCC3)O1` (racemic) [Example 10, Ethyl 5-(4-chlorophenyl)-2-((1,2,3,5,6,7-hexahydro-s-indacene-4-yl)amino)-4,5-dihydrooxazole-5-carboxylate] the pIC50 ([1]; Homo sapiens, 3 h) was 5.00 to 6.00 and the pIC50 [2] was 5.00 to 6.00.

In the case of `CCOC(=O)C(O)(CNC(=S)Nc1c2c(cc3c1CCC3)CCC2)c1cc(C(C)(C)O)on1` (racemic) [Example 14, Ethyl 3-(3-(1,2,3,5,6,7-hexahydro-s-indacen-4-yl)thioureido)-2-hydroxy-2-(5-(2-hydroxypropan-2-yl)isoxazol-3-yl)propanoate], the pIC50 [1] was greater than 6.00 and the pIC50 [2] was greater than 6.00.

`CCOC(=O)C1(c2ccccc2)CN=C(Nc2c3c(c(F)c4c2CCC4)CCC3)O1` (racemic) [Example 30, ethyl 2-((8-fluoro-1,2,3,5,6,7-hexahydro-s-indacen-4-yl)amino)-5-phenyl-4,5-dihydrooxazole-5-carboxylate] was tested, and the pIC50 ([1]; Homo sapiens, 3 h) was 5.00 to 6.00 and the pIC50 [2] was greater than 6.00.

For `CCOC(=O)C1(c2ncccn2)CN=C(Nc2c3c(cc4c2CCC4)CCC3)O1` (racemic) [Example 50, ethyl 2-((1,2,3,5,6,7-hexahydro-s-indacen-4-yl)amino)-5-(pyrimidin-2-yl)-4,5-dihydrooxazole-5-carboxylate], the pIC50 ([1]; Homo sapiens, 3 h) was greater than 6.00 and the pIC50 [2] was 5.00 to 6.00.

In the case of `CCOC(=O)C1(c2cc(C(C)(C)O)on2)OC(Nc2c3c(cc4c2CCC4)CCC3)=NC1C` (racemic) [Example 52, ethyl 2-((1,2,3,5,6,7-hexahydro-s-indacen-4-yl)amino)-5-(5-(2-hydroxypropan-2-yl)isoxazol-3-yl)-4-methyl-4,5-dihydrooxazole-5-carboxylate], the pIC50 ([1]; Homo sapiens, 3 h) was greater than 6.00 and the pIC50 [2] was 5.00 to 6.00.

`CC(C)(C)OC(=O)C1(c2ccno2)CN=C(Nc2c3c(cc4c2CCC4)CCC3)O1` (racemic) [Example 90, tert-butyl 2-((1,2,3,5,6,7-hexahydro-s-indacen-4-yl)amino)-5-(isoxazol-5-yl)-4,5-dihydrooxazole-5-carboxylate] gave a pIC50 ([1]; Homo sapiens, 3 h) greater than 6.00 and a pIC50 [2] of 5.00 to 6.00.

`CCOC(=O)C1(c2nccn2C)CN=C(Nc2c3c(cc4c2CCC4)CCC3)O1` (single isomer, unassigned) [Example 5, Ethyl 2-((1,2,3,5,6,7-hexahydro-s-indacen-4-yl)amino)-5-(1-methyl-1H-imidazol-2-yl)-4,5-dihydrooxazole-5-carboxylate] showed a pIC50 [1] greater than 6.00 and a pIC50 [2] greater than 6.00.

`CCOC(=O)C1(c2ccc(OC)nc2)CN=C(Nc2c3c(cc4c2CCC4)CCC3)O1` (single isomer, unassigned) [Example 7, Ethyl 2-((1,2,3,5,6,7-hexahydro-s-indacen-4-yl)amino)-5-(6-methoxypyridin-3-yl)-4,5-dihydrooxazole-5-carboxylate] showed a pIC50 [1] greater than 6.00 and a pIC50 [2] greater than 6.00.

`CCOC(=O)C1(c2ccccn2)CN=C(Nc2c3c(cc4c2CCC4)CCC3)O1` (single isomer, unassigned) [Example 9, Ethyl 2-((1,2,3,5,6,7-hexahydro-s-indacen-4-yl)amino)-5-(pyridin-2-yl)-4,5-dihydrooxazole-5-carboxylate] was tested, and the pIC50 [1] was greater than 6.00 and the pIC50 [2] was greater than 6.00.

In the case of `CCOC(=O)C1(c2ccc(Cl)cc2)CN=C(Nc2c3c(cc4c2CCC4)CCC3)O1` (single isomer, unassigned) [Example 10a, Ethyl 5-(4-chlorophenyl)-2-((1,2,3,5,6,7-hexahydro-s-indacene-4-yl)amino)-4,5-dihydrooxazole-5-carboxylate], the pIC50 [1] was 4.52 to 5.00 and the pIC50 [2] was greater than 6.00.

`CCOC(=O)C1(c2cccnc2)CN=C(Nc2c3c(cc4c2CCC4)CCC3)O1` (single isomer, unassigned) [Example 11, Ethyl 2-((1,2,3,5,6,7-hexahydro-s-indacen-4-yl)amino)-5-(pyridin-3-yl)-4,5-dihydrooxazole-5-carboxylate] was tested, and the pIC50 [1] was greater than 6.00 and the pIC50 [2] was greater than 6.00.

`CCOC(=O)C1(c2cccc(Cl)c2)CN=C(Nc2c3c(cc4c2CCC4)CCC3)O1` (single isomer, unassigned) [Example 13a, Ethyl 5-(3-chlorophenyl)-2-((1,2,3,5,6,7-hexahydro-s-indacen-4-yl)amino)-4,5-dihydrooxazole-5-carboxylate] was tested, and the pIC50 [1] was greater than 6.00 and the pIC50 [2] was greater than 6.00.

With `CCOC(=O)C(O)(CNC(=S)Nc1c2c(cc3c1CCC3)CCC2)c1cc(C(C)(C)O)on1` (single isomer, unassigned) [Example 14a, Ethyl 3-(3-(1,2,3,5,6,7-hexahydro-s-indacen-4-yl)thioureido)-2-hydroxy-2-(5-(2-hydroxypropan-2-yl)isoxazol-3-yl)propanoate] the pIC50 [1] was greater than 6.00 and the pIC50 [2] was greater than 6.00.

`CCOC(=O)C1(c2ccccc2)CN=C(Nc2c3c(cc4c2CCC4)CCC3)O1` (stereo not drawn) [Example 2, Ethyl 2-((1,2,3,5,6,7-hexahydro-s-indacen-4-yl)amino)-5-phenyl-4,5-dihvdrooxazole-5-carboxylate] showed a pIC50 [1] of 5.00 to 6.00 and a pIC50 [2] of 5.00 to 6.00.

Work on `CCOC(=O)C1(c2nccn2C)CN=C(Nc2c3c(cc4c2CCC4)CCC3)O1` (stereo not drawn) [Example 3, Ethyl 2-((1,2,3,5,6,7-hexahvdro-s-indacen-4-vl)amino)-5-(1-methyl-1H-imidazol-2-yl)-4,5-dihydrooxazole-5-carboxylate] yielded a pIC50 ([1]; Homo sapiens, 3 h) greater than 6.00 and a pIC50 [2] greater than 6.00.

Work on `CCOC(=O)C1(c2nccn2C)CN=C(Nc2c3c(cc4c2CCC4)CCC3)O1` (stereo not drawn) [Example 4, Ethyl 2-((1,2,3,5,6,7-hexahydro-s-indacen-4-vl)amino)-5-(1-methyl-1H-imidazol-2-yl)-4,5-dihydrooxazole-5-carboxylate] yielded a pIC50 [1] greater than 6.00 and a pIC50 [2] greater than 6.00.

`CCOC(=O)C1(c2ccc(OC)nc2)CN=C(Nc2c3c(cc4c2CCC4)CCC3)O1` (stereo not drawn) [Example 6, Ethyl 2-((1,2,3,5,6,7-hexahydro-s-indacen-4-yl)amino)-5-(6-methoxypyridin-3-yl)-4,5-dihydrooxazole-5-carboxylate] showed a pIC50 ([1]; Homo sapiens, 3 h) greater than 6.00 and a pIC50 [2] greater than 6.00.

In the case of `CCOC(=O)C1(c2cccnc2)CN=C(Nc2c3c(cc4c2CCC4)CCC3)O1` (stereo not drawn) [Example 11a, Ethyl 2-((1,2,3,5,6,7-hexahydro-s-indacen-4-yl)amino)-5-(pyridin-3-yl)-4,5-dihvdrooxazole-5-carboxylate], the pIC50 ([1]; Homo sapiens, 3 h) was greater than 6.00 and the pIC50 [2] was greater than 6.00.

Work on `CCOC(=O)C1(c2cccc(Cl)c2)CN=C(Nc2c3c(cc4c2CCC4)CCC3)O1` (stereo not drawn) [Example 13, Ethyl 5-(3-chlorophenyl)-2-((1,2,3,5,6,7-hexahydro-s-indacene-4-yl)amino)-4,5-dihvdrooxazole-5-carboxylate] yielded a pIC50 ([1]; Homo sapiens, 3 h) greater than 6.00 and a pIC50 [2] greater than 6.00.

In the case of `CCOC(=O)C1(c2cc(C(C)(C)O)on2)CN=C(Nc2c3c(cc4c2CCC4)CCC3)O1` (stereo not drawn) [Example 15, Ethyl 2-((1,2,3,5,6,7-hexahvdro-s-indacen-4-yl)amino)-5-(5-(2-hydroxypropan-2-yl)isoxazol-3-yl)-4,5-dihydrooxazole-5-carboxylate], the pIC50 ([1]; Homo sapiens, 3 h) was greater than 6.00 and the pIC50 [2] was greater than 6.00.

`O=C(O)C1(c2ccccn2)CN=C(Nc2c3c(cc4c2CCC4)CCC3)O1` (stereo not drawn) [Example 25, 2-((1,2,3,5,6,7-hexahydro-s-indacen-4-yl)amino)-5-(pyridin-2-yl)-4,5-dihydrooxazole-5-carboxylic acid] showed a pIC50 [2] of 5.00 to 6.00.

Molecule `O=C(O)C1(c2cccnc2)CN=C(Nc2c3c(cc4c2CCC4)CCC3)O1` (stereo not drawn) [Example 26, 2-((1,2,3,5,6,7-hexahydro-s-indacen-4-yl)amino)-5-(pyridin-3-yl)-4,5-dihydrooxazole-5-carboxylic acid] has a pIC50 [2] of 5.00 to 6.00.

`CCOC(=O)C1(c2cc(C(C)(C)O)on2)OC(Nc2c3c(cc4c2CCC4)CCC3)=NC1CC` (stereo not drawn) [Example 51, ethyl 4-ethyl-2-((1,2,3,5,6,7-hexahydro-s-indacen-4-yl)amino)-5-(5-(2-hydroxypropan-2-yl)isoxazol-3-yl)-4,5-dihydrooxazole-5-carboxylate] showed a pIC50 [2] of 5.00 to 6.00.

`CC(C)OC(=O)C1(c2ccon2)CN=C(Nc2c3c(cc4c2CCC4)CCC3)O1` (stereo not drawn) [Example 56, Isopropyl 2-((1,2,3,5,6,7-hexahydro-s-indacen-4-vl)amino)-5-(isoxazol-3-yl)-4,5-dihvdrooxazole-5-carboxylate] was tested, and the pIC50 [2] was greater than 6.00.

`O=C(OC1CCCC1)C1(c2ccon2)CN=C(Nc2c3c(cc4c2CCC4)CCC3)O1` (stereo not drawn) [Example 57, Cyclopentyl 2-((1,2,3,5,6,7-hexahvdro-s-indacen-4-vl)amino)-5-(isoxazol-3-vl)-4,5-dihvdrooxazole-5-carboxylate] was tested, and the pIC50 [2] was greater than 6.00.
